Values of other authors as cited in patent US12336538B2, “Method for controlling rats and mice with cholecalciferol baits” (priority 2014, dated 2025).

How the values were obtained:
bait shyness = details: Gould and Holmes, Pest Manag. Sci. 2008

| SMILES | suitability to control a rat population (rat population; 0.1% cholecalciferol alone, only one day of feeding, Posipischil and Schnorbach 1994) | suitability to control rat population (rat population; cholecalciferol alone, Kocher and Navjot 2013) | prevention of bait shyness to cholecalciferol (bait shyness) |
| --- | --- | --- | --- |
| C=C1CC[C@H](O)C/C1=C/C=C1\CCC[C@]2(C)[C@@H]([C@H](C)CCCC(C)C)CC[C@@H]12 [cholecalciferol, Cholecalciferol] | not suitable to control a rat population | not suitable to control rat population |  |
| COc1ccc2c(c1)[C@]13CCCC[C@@H]1[C@H](C2)N(C)CC3 [dextromethorphan] |  |  | ineffective |
